Results on one compound are retold here after publication PMC6749364, “Pharmacokinetics and Tissue Distribution of Alnustone in Rats after Intravenous Administration by Liquid Chromatography-Mass Spectrometry” (Molecules, 2019).

The term Tmax denotes the time from dosing to the highest level. For orientation: AUC(0-inf) means total exposure, with the tail of the curve extrapolated. In general, Cmax refers to the peak of the concentration-time curve. What is called Vd is a proportionality between amount in the body and measured concentration, not a real space. A higher Vd goes with extensive tissue distribution. What is called clearance is a measure of how efficiently the substance is removed, as volume per time. Higher therefore signals a high capacity for elimination. For orientation: half-life means how long it takes for the measured level to halve. A high value points to slow loss. Broadly, the AUC(0-t) is the area under the concentration-time curve up to a stated or last time point. Lower therefore signals less exposure.

The series is described as follows: Plasma pharmacokinetic study after single intravenous administration. The settings on record: Sprague-Dawley, rat, rats, single i.v. 5 mg/kg. The class given is in vivo. On the procedure:
In this study, a direct protein precipitation method was applied to extract alnustone and IS from the biological matrix. An aliquot 100 μL of plasma, 50 μL of IS solution (1 μg/mL) and 200 μL of precipitate agent acetonitrile with 0.5% formic acid was added into a 1.5 mL Eppendorf tube. The mixture was vortex-mixed for 30 s at room temperature, and centrifuged at 12,000× g for 10 min. […] The residuals were reconstituted in 100 μL of methanol-0.1% fomic acid water (20:80, v/v) by vortex mixing for 30 s. After centrifuging at 12,000× g for 10 min, a 10 μL aliquot of the supernatant was used for the UHPLC-MS/MS analysis. The mobile phase consisted of methanol and 0.1% formic acid water using a gradient dilution at a flow rate of 0.3 mL/min. The column temperature was maintained at 30 °C. Alnustone was quantitatively determined with MRM in the positive ion mode, and nitrogen was used to assist nebulization in the ESI source. The MS parameters were set as follows: The ionspray voltage (IS) 5500 V; nebulizer gas (gas 1) 19 arbitrary units; curtain gas (CUR) 10 arbitrary units; collision cell exit potential (CXP) 7.0 V; entrance potential (EP) 10.0 V. The optimization of the MS transitions using the multiple-reaction monitoring (MRM) mode were accomplished as alnustone m/z 262.9→105.2 and IS (caffeine) m/z 195.2→138.0, respectively. For the pharmacokinetic study, 12 SD rats fasted for 12 h with free access to water prior to administration. After the rats were tail intravenously administrated of alnustone (5 mg/kg), a blood sample (0.4 mL) was collected from the orbital vein into heparinized tubes at appropriate time intervals (2 min, 5 min, 10 min, 15 min, 30 min, 45 min, 1 […]). The blank plasma samples were prepared before dosing. All blood samples were immediately centrifuged at 12,000× g for 10 min and stored at -75 °C until analysis. The pharmacokinetic parameters were evaluated using DAS 3.2.8 pharmacokinetic program.

As for `O=C(/C=C/C=C/c1ccccc1)CCc1ccccc1` [alnustone, Alnustone], the Tmax is 2 min. Where the note is “n = 12”, the area under the curve AUC(0-inf) was 6030 ± 472 ng·h/mL, the peak level (Cmax) was 7070 ± 821 ng/mL, the Vd is 1.57 ± 0.18 L/kg and the clearance is 13.8 mL/min/kg. Also, for the setting “n = 12”, the half-life is 1.31 ± 0.19 h. The MRT inf (n = 12, read-out: MRT0–∞) is 1.6 ± 0.22 h. Besides, under “read-out: MRT0-t (total mean residence time up to 10 h)”, the MRT last came out at 1.6 ± 0.22 h. Further, the area under the curve AUC(0-t) (up to 10 h, n = 12) amounted to 6010 ± 567 ng·h/mL.
